Assay [1] has as its system control sera (pooled serum of ten healthy LUMC hospital workers; commercial negative donor pooled serum from the Dutch bloodbank). The class given is binding, human. Details: Binding of Control serum LUMC to linear peptides / Binding of Control serum Blood-bank to linear peptides / Binding of Control serum LUMC to looped peptides / Binding of Control Serum Blood-Bank to Looped peptides / Binding of Control serum LUMC to linear peptides of the protein M of SARS-CoV Urbani / Binding of Control serum Blood-bank to linear peptides of the protein M of SARS-CoV Urbani / Binding of Control serum LUMC to looped peptides of the protein M of SARS-CoV Urbani / Binding of Control Serum Blood-Bank to Looped peptides of the protein M of SARS-CoV Urbani: unit not given here.

For assay [2], the system named is antibodies in sera from SARS patients (sera 1a, 1b, 2, 6, 37, 62, London, SARS-yellow, SARS-green). The class given is binding, human. On the set-up: Binding of serum 6 to linear peptides of protein X1 of SARS-CoV Urbani / Binding of serum 37 to linear peptides of protein X1 of SARS-CoV Urbani / Binding of serum 6 to looped/cyclic peptide (PEPSCAN-ELISA) / Binding of serum 37 to looped/cyclic peptide (PEPSCAN-ELISA) / Binding of serum 37 to looped/cyclic peptides of protein X1 of SARS-CoV Urbani / Binding of serum 6 to linear peptides of protein X2 / Binding of serum 37 to linear peptides of protein X2 / Binding of serum 37 to looped/cyclic peptides of protein X2 of SARS-CoV Urbani / Binding of serum 6 to linear peptides of protein M of SARS-CoV Urbani / Binding of serum 37 to linear peptides of protein M of SARS-CoV Urbani / Binding of serum 6 to looped/cyclic peptides of protein M of SARS-CoV Urbani / Binding of serum 37 to looped/cyclic peptides of protein M of SARS-CoV Urbani / Binding of serum 6 to linear peptides of protein X3 of SARS-CoV Urbani / Binding of serum 37 to linear peptides of protein X3 of SARS-CoV Urbani / Binding of serum 37 to looped/cyclic peptides of protein X3 of SARS-CoV Urbani / Binding of serum 6 to linear peptides of protein X4 of SARS-CoV Urbani / Binding of serum 37 to linear peptides of protein X4 of SARS-CoV Urbani / Binding of serum 37 to looped/cyclic peptides of protein X4 of SARS-CoV Urbani / Binding of serum 6 to linear peptides of protein X5 of SARS-CoV Urbani / Binding of serum 37 to linear peptides of protein X5 of SARS-CoV Urbani / Binding of serum 37 to looped/cyclic peptides of protein X5 of SARS-CoV Urbani / Binding of serum 6 to linear peptides of protein N of SARS-CoV Urbani / Binding of serum 37 to linear peptides of protein N of SARS-CoV Urbani / Binding of serum 6 to linear peptide (PEPSCAN-ELISA) / Binding of serum 1a to looped/cyclic peptides of protein N of SARS-CoV Urbani / Binding of serum 1b to looped/cyclic peptides of protein N of SARS-CoV Urbani / Binding of serum 2 to looped/cyclic peptides of protein N of SARS-CoV Urbani / Binding of serum 6 to looped/cyclic peptides of protein N of SARS-CoV Urbani / Binding of serum 37 to looped/cyclic peptides of protein N of SARS-CoV Urbani / Binding of serum 62 to looped/cyclic peptides of protein N of SARS-CoV Urbani / Binding of serum London to looped/cyclic peptides of protein N of SARS-CoV Urbani / Binding of serum SARS-green to looped/cyclic peptides of protein N of SARS-CoV Urbani: unit not given here.

The subject of assay [3] is rabbit serum obtained by immunizing a rabbit with the SARS-CoV strain Frankfurt 1. The assay is classed as binding. On the set-up: Binding of a rabbit serum to linear peptides / Binding of a rabbit serum to looped peptides / Rabbit serum linear peptides / Rabbit serum looped peptides / Binding of a rabbit serum to linear peptides of protein N of SARS-CoV Urbani (Rabbit serum linear peptides) / Binding of a rabbit serum to looped/cyclic peptides of protein N of SARS-CoV Urbani (Rabbit serum looped peptides): unit not given here.

Here are results for four sequences from patent US20070128217A1 (priority 2003, published 2007).

For the sequence SNRNRFLYIIKLVFL, in assay [1], the “Binding of Control Serum Blood-Bank to Looped peptides of the protein M of SARS-CoV Urbani” value was 0.7, the “Binding of Control serum Blood-bank to linear peptides of the protein M of SARS-CoV Urbani” value was 0.7, the “Binding of Control serum LUMC to linear peptides of the protein M of SARS-CoV Urbani” value was determined as 0.7 and the “Binding of Control serum LUMC to looped peptides of the protein M of SARS-CoV Urbani” value was 0.9. Also, in assay [2], the “Binding of serum 1a to linear peptides of protein M of SARS-CoV Urbani” value is given as 0.6, the “Binding of serum 1b to linear peptides of protein M of SARS-CoV Urbani” value worked out at 0.5, the “Binding of serum 2 to linear peptides of protein M of SARS-CoV Urbani” value worked out at 0.4 and the “Binding of serum 6 to linear peptides of protein M of SARS-CoV Urbani” value was 0.5. Further, in assay [2], the “Binding of serum 37 to linear peptides of protein M of SARS-CoV Urbani” value came out at 0.4, the “Binding of serum 62 to linear peptides of protein M of SARS-CoV Urbani” value was found to be 0.4, the “Binding of serum London to linear peptides of protein M of SARS-CoV Urbani” value is 0.3 and the “Binding of serum SARS-green to linear peptides of protein M of SARS-CoV Urbani” value worked out at 0.4. Also, in assay [2], the “Binding of serum SARS-yellow to linear peptides of protein M of SARS-CoV Urbani” value stood at 0.3; the “Recognition of the peptide by sera of SARS-CoV infected individuals, and form (linear, looped/cyclic) in which it is recognized” value is “recognized in looped/cyclic form”. Also, in assay [3], the “Rabbit serum linear peptides” value is given as 0.5 and the “Rabbit serum looped peptides” value is listed as 0.6.

For SPKFTTSLSLHKLLQ, in assay [1], the “Binding of Control Serum Blood-Bank to Looped peptides” value is recorded as 0.5, the “Binding of Control serum Blood-bank to linear peptides” value is 0.5, the “Binding of Control serum LUMC to linear peptides” value was found to be 0.3 and the “Binding of Control serum LUMC to looped peptides” value was 0.6. In assay [2], the “Binding of serum 1a to linear peptides of protein X2” value was 0.6, the “Binding of serum 1a to looped/cyclic peptides of protein X2 of SARS-CoV Urbani” value came out at 0.5, the “Binding of serum 1b to linear peptides of protein X2” value turned out to be 0.4 and the “Binding of serum 1b to looped/cyclic peptides of protein X2 of SARS-CoV Urbani” value worked out at 0.5. In addition, in assay [2], the “Binding of serum 2 to linear peptides of protein X2” value is given as 0.4, the “Binding of serum 2 to looped/cyclic peptides of protein X2 of SARS-CoV Urbani” value is on record as 0.3, the “Binding of serum 6 to linear peptides of protein X2” value is reported as 0.4 and the “Binding of serum 6 to looped/cyclic peptides of protein X2 of SARS-CoV Urbani” value turned out to be 0.4. In addition, in assay [2], the “Binding of serum 37 to linear peptides of protein X2” value turned out to be 0.5, the “Binding of serum 37 to looped/cyclic peptides of protein X2 of SARS-CoV Urbani” value was found to be 0.3, the “Binding of serum 62 to linear peptides of protein X2” value is on record as 0.5 and the “Binding of serum 62 to looped/cyclic peptides of protein X2 of SARS-CoV Urbani” value is reported as 0.5. Also, in assay [2], the “Binding of serum London to linear peptides of protein X2” value was determined as 0.4, the “Binding of serum London to looped/cyclic peptides of protein X2 of SARS-CoV Urbani” value was determined as 0.2, the “Binding of serum SARS-green to linear peptides of protein X2” value came out at 0.5 and the “Binding of serum SARS-green to looped/cyclic peptides of protein X2 of SARS-CoV Urbani” value is listed as 0.2. Further, in assay [2], the “Binding of serum SARS-yellow to linear peptides of protein X2” value is on record as 0.3 and the “Binding of serum SARS-yellow to looped/cyclic peptides of protein X2 of SARS-CoV Urbani” value came to 0.3. Also, in assay [3], the “Binding of a rabbit serum to linear peptides” value is given as 0.3 and the “Binding of a rabbit serum to looped peptides” value came out at 0.5.

As for SPKLFIRQEEVQQEL, in assay [1], the “Binding of Control Serum Blood-Bank to Looped peptides” value turned out to be 0.6, the “Binding of Control serum Blood-bank to linear peptides” value worked out at 0.5, the “Binding of Control serum LUMC to linear peptides” value was 0.5 and the “Binding of Control serum LUMC to looped peptides” value is given as 0.8. For the same sequence, in assay [2], the “Binding of serum 1a to linear peptides of protein X4 of SARS-CoV Urbani” value was 0.7, the “Binding of serum 1a to looped/cyclic peptides of protein X4 of SARS-CoV Urbani” value is 0.8, the “Binding of serum 1b to linear peptides of protein X4 of SARS-CoV Urbani” value is 0.5 and the “Binding of serum 1b to looped/cyclic peptides of protein X4 of SARS-CoV Urbani” value is 0.6. Besides, in assay [2], the “Binding of serum 2 to linear peptides of protein X4 of SARS-CoV Urbani” value is 0.3, the “Binding of serum 2 to looped/cyclic peptides of protein X4 of SARS-CoV Urbani” value amounted to 0.7, the “Binding of serum 6 to linear peptides of protein X4 of SARS-CoV Urbani” value was 0.4 and the “Binding of serum 6 to looped/cyclic peptides of protein X4 of SARS-CoV Urbani” value came out at 0.6. In assay [2], the “Binding of serum 37 to linear peptides of protein X4 of SARS-CoV Urbani” value stood at 0.7, the “Binding of serum 37 to looped/cyclic peptides of protein X4 of SARS-CoV Urbani” value was 0.8, the “Binding of serum 62 to linear peptides of protein X4 of SARS-CoV Urbani” value is given as 0.7 and the “Binding of serum 62 to looped/cyclic peptides of protein X4 of SARS-CoV Urbani” value was found to be 0.6. For the same sequence, in assay [2], the “Binding of serum London to linear peptides of protein X4 of SARS-CoV Urbani” value was determined as 0.7, the “Binding of serum London to looped/cyclic peptides of protein X4 of SARS-CoV Urbani” value is listed as 0.4, the “Binding of serum SARS-green to linear peptides of protein X4 of SARS-CoV Urbani” value amounted to 0.8 and the “Binding of serum SARS-green to looped/cyclic peptides of protein X4 of SARS-CoV Urbani” value came out at 0.2. Further, in assay [2], the “Binding of serum SARS-yellow to linear peptides of protein X4 of SARS-CoV Urbani” value is 0.5 and the “Binding of serum SARS-yellow to looped/cyclic peptides of protein X4 of SARS-CoV Urbani” value was 0.5. In addition, in assay [3], the “Rabbit serum linear peptides” value was determined as 0.5 and the “Rabbit serum looped peptides” value is given as 0.0.

With SQIQLSLLKVTAFQH, in assay [1], the “Binding of Control Serum Blood-Bank to Looped peptides” value was determined as 0.6, the “Binding of Control serum Blood-bank to linear peptides” value was found to be 0.5, the “Binding of Control serum LUMC to linear peptides” value is listed as 0.7 and the “Binding of Control serum LUMC to looped peptides” value was 0.6. For the same sequence, in assay [2], the “Binding of serum 1a to linear peptides of protein X2” value was 0.6, the “Binding of serum 1a to looped/cyclic peptides of protein X2 of SARS-CoV Urbani” value was 0.5, the “Binding of serum 1b to linear peptides of protein X2” value was found to be 0.5 and the “Binding of serum 1b to looped/cyclic peptides of protein X2 of SARS-CoV Urbani” value worked out at 0.5. In addition, in assay [2], the “Binding of serum 2 to linear peptides of protein X2” value is 0.4, the “Binding of serum 2 to looped/cyclic peptides of protein X2 of SARS-CoV Urbani” value was determined as 0.4, the “Binding of serum 6 to linear peptides of protein X2” value was 0.5 and the “Binding of serum 6 to looped/cyclic peptides of protein X2 of SARS-CoV Urbani” value is on record as 0.6. In assay [2], the “Binding of serum 37 to linear peptides of protein X2” value was 0.5, the “Binding of serum 37 to looped/cyclic peptides of protein X2 of SARS-CoV Urbani” value was 0.4, the “Binding of serum 62 to linear peptides of protein X2” value is recorded as 0.4 and the “Binding of serum 62 to looped/cyclic peptides of protein X2 of SARS-CoV Urbani” value is 0.6. Moreover, in assay [2], the “Binding of serum London to linear peptides of protein X2” value is given as 0.3, the “Binding of serum London to looped/cyclic peptides of protein X2 of SARS-CoV Urbani” value is recorded as 1.0, the “Binding of serum SARS-green to linear peptides of protein X2” value stood at 0.2 and the “Binding of serum SARS-green to looped/cyclic peptides of protein X2 of SARS-CoV Urbani” value worked out at 0.2. In addition, in assay [2], the “Binding of serum SARS-yellow to linear peptides of protein X2” value came out at 0.3 and the “Binding of serum SARS-yellow to looped/cyclic peptides of protein X2 of SARS-CoV Urbani” value came out at 0.7. In assay [3], the “Binding of a rabbit serum to linear peptides” value is listed as 0.7 and the “Binding of a rabbit serum to looped peptides” value is recorded as 0.5.
